Tests used:
huPPARα [1] = target: T1, huPPARα (Homo sapiens, UniProt Q07869); experiment: DNA-dependent binding (ABCD binding), SPA, tritium-labeled PPARα agonist radioligand; settings: displacement of tritium-labeled PPARα agonist
T1 sequence (Q07869 1-468): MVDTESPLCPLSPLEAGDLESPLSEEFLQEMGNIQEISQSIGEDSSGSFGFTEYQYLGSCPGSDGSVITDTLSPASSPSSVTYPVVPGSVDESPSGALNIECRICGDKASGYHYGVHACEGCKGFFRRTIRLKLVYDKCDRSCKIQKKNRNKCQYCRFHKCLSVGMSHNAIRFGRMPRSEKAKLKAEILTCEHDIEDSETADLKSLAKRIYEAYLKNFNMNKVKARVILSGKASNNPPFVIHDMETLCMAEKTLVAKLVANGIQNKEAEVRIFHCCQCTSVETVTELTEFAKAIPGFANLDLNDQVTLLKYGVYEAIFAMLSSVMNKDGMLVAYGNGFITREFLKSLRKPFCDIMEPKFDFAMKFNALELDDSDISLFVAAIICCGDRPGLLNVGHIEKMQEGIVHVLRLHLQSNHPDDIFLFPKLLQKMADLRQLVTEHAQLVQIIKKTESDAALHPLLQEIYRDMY
T1 sequence (P19793 1-462 partner): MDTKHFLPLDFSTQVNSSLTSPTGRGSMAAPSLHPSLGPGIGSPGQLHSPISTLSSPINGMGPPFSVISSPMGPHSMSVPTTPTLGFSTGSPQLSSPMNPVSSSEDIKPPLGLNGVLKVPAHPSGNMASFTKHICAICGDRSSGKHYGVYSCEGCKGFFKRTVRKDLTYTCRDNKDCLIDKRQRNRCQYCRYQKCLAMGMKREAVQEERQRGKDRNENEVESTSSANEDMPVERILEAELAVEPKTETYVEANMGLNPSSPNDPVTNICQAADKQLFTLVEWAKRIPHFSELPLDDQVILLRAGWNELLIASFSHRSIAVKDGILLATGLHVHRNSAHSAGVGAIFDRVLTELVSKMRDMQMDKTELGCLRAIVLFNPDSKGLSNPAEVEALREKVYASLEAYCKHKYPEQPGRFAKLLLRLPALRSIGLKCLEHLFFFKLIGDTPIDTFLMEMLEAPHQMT
Description: (§1) DNA-dependent binding (ABCD binding) was carried out using SPA technology with PPAR receptors. Tritium-labeled PPARα and PPARγ agonists were used as radioligands for generating displacement curves and IC50 values with compounds of the invention. Cotransfection assays were carried out in CV-1 cells. The reporter plasmid contained an acylCoA oxidase (AOX) PPRE and TK promoter upstream of the luciferase reporter cDNA. Appropriate PPARs and RXRα were constitutively expressed using plasmids containing the CMV promoter. […] In order to eliminate such interference, a GAL4 chimeric system was used in which the DNA binding domain of the transfected PPAR was replaced by that of GAL4, and the GAL4 response element was utilized in place of the AOX PPRE. Cotransfection efficacy was determined relative to PPARα agonist and PPARγ agonist reference molecules. Efficacies were determined by computer fit to a concentration-response curve, or in some cases at a single high concentration of agonist (10 μM). For binding or cotransfection studies with receptors other than PPARs, similar assays were carried out using appropriate ligands, receptors, reporter constructs, etc., for that particular receptor.
(§2) These studies were carried out to evaluate the ability of compounds of the invention to bind to and/or activate various nuclear transcription factors, particularly huPPARα (“hu” indicates “human”) and huPPARγ. These studies provide in vitro data concerning efficacy and selectivity of compounds of the invention. Furthermore, binding and cotransfection data for compounds of the invention were compared with corresponding data for marketed compounds that act on either huPPARα or huPPARγ.
(§3) Binding and cotransfection data for representative compounds of the invention are compared with corresponding data for reference compounds in Table II.

huPPARγ = target: T2, huPPARγ (Homo sapiens, UniProt P37231); experiment: DNA-dependent binding (ABCD binding), SPA, tritium-labeled PPARγ agonist radioligand; settings: displacement of tritium-labeled PPARγ agonist
T2 sequence (P37231 1-505): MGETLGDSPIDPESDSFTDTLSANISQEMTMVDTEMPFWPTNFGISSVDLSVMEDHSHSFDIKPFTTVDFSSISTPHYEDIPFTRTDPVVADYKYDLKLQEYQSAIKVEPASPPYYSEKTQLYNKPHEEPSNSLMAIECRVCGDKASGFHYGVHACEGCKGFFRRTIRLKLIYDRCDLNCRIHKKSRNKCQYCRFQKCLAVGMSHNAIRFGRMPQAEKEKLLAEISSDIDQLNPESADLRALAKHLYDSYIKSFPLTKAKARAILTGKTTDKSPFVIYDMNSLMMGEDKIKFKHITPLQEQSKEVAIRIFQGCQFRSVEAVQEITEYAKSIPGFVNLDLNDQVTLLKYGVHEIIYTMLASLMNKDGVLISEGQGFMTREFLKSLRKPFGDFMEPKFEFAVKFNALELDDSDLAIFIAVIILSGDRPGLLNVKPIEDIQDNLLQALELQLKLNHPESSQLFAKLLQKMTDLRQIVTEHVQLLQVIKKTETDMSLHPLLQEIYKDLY
T2 sequence (P19793 1-462 partner): T1 sequence (P19793 1-462 partner)
Description: as §1, §2, §3

huPPARα [2] = experiment: Cotransfection assay in CV-1 cells, luciferase reporter (GAL4 chimeric system); type: cell-based, human; settings: cotransfection efficacy relative to PPARα agonist reference molecule
Description: as §1, §2, §3

| SMILES | IC50 (huPPARα [1]) [nM] | IC50 (huPPARγ) [nM] | melting point [°C] | huPPARα CTF Eff. (%) (huPPARα [2]) |
| --- | --- | --- | --- | --- |
| Cc1oc(-c2ccccc2)nc1CCOc1ccc(OC(C)(C)C(=O)O)cc1 [Example 1, 2-Methyl-2-{4-[2-(5-methyl-2-phenyloxazol-4-yl)ethoxy]phenoxy}propionic acid] | 1680 | 2130 | – | 72 |
| Cc1oc(-c2cccc(Br)c2)nc1CCOc1ccc(OC(C)(C)C(=O)O)cc1 [Example 9A, 2-(4-{2-[2-(3-Bromophenyl)-5-methyloxazol-4-yl]ethoxy}phenoxy)-2-methylpropionic acid] | 75 | 180 | 158 to 159 | 82 |
| CCc1cccc(-c2nc(CCOc3ccc(OC(C)(C)C(=O)O)cc3)c(C)o2)c1 [Example 12, 2-(4-{2-[2-(3-Ethylphenyl)-5-methyloxazol-4-yl]ethoxy}phenoxy)-2-methylpropionic acid] | 31 | 219 | 134 to 135 | 68 |
| CCc1ccc(-c2nc(CCOc3ccc(OC(C)(C)C(=O)O)cc3)c(C)o2)cc1 [Example 13, 2-(4-{2-[2-(4-Ethylphenyl)-5-methyloxazol-4-yl]ethoxy}phenoxy)-2-methylpropionic acid] | 25 | 420 | – | 73 |
| Cc1oc(-c2ccc(OC3CCCCC3)cc2)nc1CCOc1ccc(OC(C)(C)C(=O)O)cc1 [Example 21, 2-(4-{2-[2-(4-Cyclohexyloxy-phenyl)-5-methyl-oxazol-4-yl]-ethoxy}-phenoxy)-2-methyl-propionic acid] | 401 | 627 | – | 78 |
| CCCc1cc(OCCc2nc(-c3ccccc3)oc2C)ccc1OCC(=O)O [Example 26, {4-[2-(5-methyl-2-phenyl-oxazol-4-yl)ethoxy]-2-propylphenoxy}acetic acid] | 3280 | 1150 | – | 35 |
| CCCc1cc(OCCc2nc(-c3ccccc3)oc2C)ccc1OC(C)(C)C(=O)O [Example 26A, 2-Methyl-2-{4-[2-(5-methyl-2-phenyloxazol-4-yl)ethoxy]-2-propylphenoxy}propionic acid] | 79 | 102 | – | 75 |
| CCCc1cc(OC(C)(C)C(=O)O)ccc1OCCc1nc(-c2ccccc2)oc1C [Example 27A, 2-Methyl-2-{4-[2-(5-methyl-2-phenyloxazol-4-yl)ethoxy]-3-propylphenoxy}propionic acid] | 113 | 49 | – | 95 |
| Cc1oc(-c2ccccc2)nc1CCOc1ccc(OC(C)(C)C(=O)O)c(CC(C)C)c1 [Example 30C, 2-{2-Isobutyl-4-[2-(5-methyl-2-phenyloxazol-4-yl)ethoxy]phenoxy}-2-methylpropionic acid] | 259 | 148 | – | 67 |
| Cc1oc(-c2ccccc2)nc1CCOc1ccc(OC(C)(C)C(=O)O)c(Cc2ccccc2)c1 [Example 32, 2-{2-Benzyl-4-[2-(5-methyl-2-phenyloxazol-4-yl)ethoxy]phenoxy}-2-methylpropionic acid] | 50 | 42 | – | 82 |
| Cc1oc(-c2ccccc2)nc1CCOc1ccc(OC(C)(C)C(=O)O)c2c1CCCC2 [Example 38, 2-Methyl-2-{4-[2-(5-methyl-2-phenyl-oxazol-4-yl)-ethoxy]-5,6,7,8-tetrahydro-naphthalen-1-yloxy}-propionic acid] | 254 | 81 | – | 80 |

Continued, in another order:

| IC50 (huPPARα [1]) [nM] | IC50 (huPPARγ) [nM] | melting point [°C] | SMILES | huPPARα CTF Eff. (%) (huPPARα [2]) |
| --- | --- | --- | --- | --- |
| 233 | 102 | 124 to 125 | Cc1oc(-c2cccc(CCc3ccccc3)c2)nc1CCOc1ccc(OC(C)(C)C(=O)O)cc1 [Example 12A, 2-Methyl-2-(4-{2-[5-methyl-2-(3-phenethylphenyl)oxazol-4-yl]ethoxy}phenoxy)-propionic acid] | 74 |
| 624 | 239 | 117 | Cc1cc(OCCc2nc(-c3ccccc3)oc2C)ccc1OC(C)(C)C(=O)O [Example 24, 2-Methyl-2-{2-methyl-4-[2-(5-methyl-2-phenyloxazol-4-yl)ethoxy]phenoxy}propionic acid] | 73 |
| 189 | 78 | – | CCc1cc(OCCc2nc(-c3ccccc3)oc2C)ccc1OC(C)(C)C(=O)O [Example 30A, 2-{2-Ethyl-4-[2-(5-methyl-2-phenyloxazol-4-yl)ethoxy]phenoxy}2-methylpropionic acid] | 80 |
| 82 | 83 | – | Cc1oc(-c2ccccc2)nc1CCOc1ccc(OC(C)(C)C(=O)O)c(CCc2ccccc2)c1 [Example 30J, 2-Methyl-2-{4-[2-(5-methyl-2-phenyloxazol-4-yl)ethoxy]-2-phenethylphenoxy}propionic acid] | 90 |
| 30 | 10 | – | CCCCc1cc(OC(C)(C)C(=O)O)ccc1OCCc1nc(-c2ccccc2)oc1C [Example 31F, 2-{3-Butyl-4-[2-(5-methyl-2-phenyloxazol-4-yl)ethoxy]phenoxy}-2-methylpropionic acid] | 70 |
| 294 | 172 | – | Cc1oc(-c2ccccc2)nc1CCOc1ccc(OC(C)(C)C(=O)O)c2ccccc12 [Example 37, 2-Methyl-2-{4-[2-(5-methyl-2-phenyl-oxazol-4-yl)-ethoxy]-naphthalen-1-yloxy}-propionic acid] | 91 |

— patent US7351728B2, “Oxazolyl-aryloxyacetic acid derivatives and their use as PPAR agonists” (Eli Lilly and Company, priority 2003, dated 2008)
